Reference: paper PMC9897792, “Discovery of novel 2-(4-(benzyloxy)-5-(hydroxyl) phenyl) benzothiazole derivatives as multifunctional MAO-B inhibitors for the treatment of Parkinson’s disease” (Journal of Enzyme Inhibition and Medicinal Chemistry, 2023)

How the values were obtained:
Assay type in all cases: cell-based
[1] = test system: TNF-α production in LPS-activated BV-2 microglia cells; assay: LPS-induced TNF-α production in BV-2 cells (ELISA); conditions: Mus musculus, 10.0 µM, LPS 1.0 µg/mL, read-out: inhibition rate of LPS-induced TNF-α production
Method: ELISA method was carried out to detect the inhibitory effects of 3h on LPS-induced TNF-α production. As shown in Figure 8(B), the level of TNF-α expression was dramatically raised when BV-2 cells were exposed to LPS (1.0 µg/mL).
(§1) ELISA and Griess reaction methods were performed to detect the inhibitory effect of 3h on the release of TNF-α and NO in LPS-stimulated BV-2 cells[46]^,[47]. BV-2 cells in the logarithmic phase were seeded into 96-well cell culture plate, and these cells were incubated at 37 °C for 24 h at the atmosphere of 5% CO2. After incubation, the culture solution was replaced by fresh one (90 µL without serum), and test compound solution (10 µL) was added. After addition, the plate was incubated for 30 min, then LPS (10 µL, 1.0 µg/ml in PBS) was added to each well, and the mixture would be incubated for another 24 h at 37 °C. After the final incubation, the supernatants were taken out to measure the level of TNF-α and NO according to the procedures depicted on the kits (kits were purchased from Nanjing Jiancheng Bioengineering Institute).

PC-12 cells [2] = assay: Cytotoxicity towards PC-12 cells (MTT); conditions: at the concentration of 10.0 µM
Method: (§2) MTT method was used to detect the in vitro neuroprotective effect of 3h on H2O2 induced PC-12 cells injury, with resveratrol as positive control. Firstly, the cytotoxicity of 3h to PC-12 cells was measured. […] […].
(§3) 3-(4,5-dimethylthiazol-2-yl)-2,5-diphenyltetrazolium bromide (MTT) method was conducted to measure the in vitro neuroprotective effect of 3h[44]. Firstly the cytotoxicity of 3h towards PC-12 cells was detected. In detail, PC-12 cells were seeded into 96-well cell culture plate in DMEM (100 µL, 1 × 10^5 cells per mL) firstly. Then, these cells were incubated at 37 °C for 24 h. After incubation, test compound solutions (10 µL) were added to the plate, and the mixture was incubated for another 2 h at 37 °C. Then, MTT solution (100 µL, 5 mg/ml in PBS) was added to each well, which would be incubated at 37 °C for final 4 h. After the final incubation, the supernatants were removed, and the formazan was dissolved in DMSO (150 µL). Then, the absorbance at 490 nm was determined by using a Varioskan Flash Multimode Reader (Thermo Scientific). As for the assay to evaluate the neuroprotective effect of 3h, the procedures were almost similar, but after the incubation of cells with 3h, H2O2 (100 µM) was added and the mixture was further incubated for 24 h.

[3] = test system: NO release in LPS-activated BV-2 microglia cells; assay: LPS-induced NO release in BV-2 cells (Griess method); conditions: Mus musculus, 10.0 µM, LPS 1.0 µg/mL, read-out: inhibitory rate of LPS-induced NO release
Method: Then, Griess method was performed to measure the inhibitory effect of 3h on LPS-induced NO release in BV-2 cells. […] It reflected that LPS could induce the activation of BV-2 cells and induce neuroinflammation.
as §1

BV-2 cells = assay: Cytotoxicity towards BV-2 cells with or without LPS (MTT); conditions: up to 10.0 µM in the presence or absence LPS (1.0 µg/mL)
Method: The in vitro anti-neuroinflammatory activity of 3h was detected by using LPS-induced inflammation mode in BV-2 cells, with resveratrol as the positive control compound[45]. The cytotoxicities of resveratrol and 3h to BV-2 cells were firstly detected by MTT method.
Firstly, the MTT method was carried out to determine the cytotoxicity of 3h towards BV-2 cell line[45]. BV-2 cells in the logarithmic phase were seeded into 96-well cell culture plate, followed by the incubation at 37 °C for 24 h at the atmosphere of 5% CO2. After incubation, the culture was replaced by fresh one (90 µL without serum), and test compound solution (10 µL) was added. Then, the mixture was incubated for another 30 min, and MTT (100 µL, 0.5 mg/ml in PBS) was added to each well. After the final incubation at 37 °C for 4 h, the supernatants were removed, and the formazan was dissolved in 200 µL of DMSO. Then, the absorbance at 490 nm was determined by using a Varioskan Flash Multimode Reader (Thermo Scientific). As for the method to evaluate the cytotoxicity of 3h towards LPS-stimulated BV-2 cells, the procedures were almost similar, but after the incubation of cells with 3h, LPS (10 µL, 1.0 µg/mL) was added, and the mixture was further incubated for 24 h.

[4] = test system: ROS release in LPS-treated BV-2 cells; assay: LPS-induced ROS release in BV-2 cells (DCFH-DA probe); conditions: concentration not given, LPS 1.0 µg/mL
Method: The inhibitory effect of 3h on LPS-induced ROS release in BV-2 cells in vitro was detected by using 2′,7′-dichlorofluorescein diacetate (DCFH-DA) as probe to quantify the ROS level in LPS-treated BV-2 cells. Noticeably, the fluorescence intensity of control group was relatively low, indicating low level of ROS. […] The fluorescence values were further detected by using microplate reader (Figure 9(B)), and then the inhibition rates were calculated. […] BV-2 cells were incubated with test compound solution (10 µL) for 30 min, then LPS (10 µL, 1.0 µg/ml in PBS) was added to each well, and each well would be incubated for another 30 min at 37 °C. […] The fluorescence was measured with excitation and emission wavelengths at 488 and 525 nm on an inverted fluorescence microscope.

PC-12 cells [5] = assay: Neuroprotective effect on H2O2 induced PC-12 cells injury (MTT); conditions: 10.0 µM; H2O2 100 µM (model 50.1%)
Method: as §2, §3

Question: Which results are given for `Oc1ccc(/C=C/c2cc(O)cc(O)c2)cc1` [resveratrol, reference compound]?
Answer: inhibition at 10 µM [1]: 50.3%; PC-12 cell viability (cytotoxicity) (PC-12 cells [2]): did not significantly alter the PC-12 cell viability; inhibition at 10 µM [3]: 51.2%; BV-2 cell viability (cytotoxicity) (BV-2 cells): did not significantly alter the BV-2 cell viability; inhibition rate of LPS-induced ROS release [4]: 59.8%; cell viability of H2O2-injured PC-12 cells (PC-12 cells [5]): 64.3 % of control value
